Results published in patent US20260207623A1, “USE OF ESTETROL IN HEPATICALLY IMPAIRED PATIENTS” (ESTETRA SRL, priority 2022, published 2026).

Legend:
post-menopausal women [1] = experiment: Example 2 dose-finding study: Hot Flush Weekly Weighted Score; assay type: in vivo, human
Procedure: Further, the terms “Hot Flush Weekly Weighted Score”, as used herein, corresponds to a score taking into account frequency and severity which is calculated by using the severity score (as calculated above): [(1×No. of mild VMS)+(2×No. of moderate VMS)+(3×No. of severe VMS)] during a 7 day period.
All treatments (Estetrol, hereinafter E4 as monohydrate, [2.5 mg, 5 mg, 10 mg, 15 mg] capsule) were administered once daily (QD) per os for at least 12 consecutive weeks until the last biological assessments (Day 91 maximum) had been performed.
A further analysis of the results was thus prepared, where data from these two doses were grouped with the placebo dose and compared to the 10 mg and 15 mg estetrol monohydrate doses.

post-menopausal women [2] = experiment: Example 3: severity of moderate to severe VMS; assay type: in vivo, human; details: 15 mg and 20 mg vs placebo; weeks 4 and 12 (FIG. 12)
Procedure: A further clinical study was designed to evaluate the effect of 15 or 20 mg estetrol (E4) monohydrate, or placebo on the severity and frequency of vasomotor symptoms (VMS) and the safety of E4 20 mg. The inclusion and exclusion criteria as described for Example 2 were maintained for the present Example (i.e. Example 3).
• 1. Mean change in weekly frequency of moderate to severe vasomotor symptoms (VMS) from Baseline to Week 4 (Efficacy Study Part) [Time Frame: Baseline and Week 4]: • The weekly frequency of moderate to severe VMS at Baseline and Week 4 is defined as the total number (sum) of all recorded moderate to severe VMS experienced during the last 7 consecutive days prior randomization for Baseline and at Week 4. Mean change=mean weekly frequency at Week 4-mean weekly frequency at Baseline. • 2. Mean change in weekly frequency of moderate to severe vasomotor symptoms (VMS) from Baseline to Week 12 (Efficacy Study Part) [Time Frame: Baseline and Week 12] • The weekly frequency of moderate to severe VMS at Baseline and Week 12 is defined as the total number (sum) of all recorded moderate to severe VMS experienced during the last 7 consecutive days prior randomization for Baseline and at Week 12. Mean change=mean weekly frequency at Week 12-mean weekly frequency at Baseline. • 3. […]

C[C@]12CC[C@@H]3c4ccc(O)cc4CC[C@H]3[C@@H]1[C@@H](O)[C@@H](O)[C@@H]2O [E4 monohydrate, estetrol monohydrate]
Hot Flush Weekly Weighted Score, relative change (% from baseline), Mean (post-menopausal women [1]; 2.5 mg daily, week 0): 0%
Hot Flush Weekly Weighted Score, relative change (% from baseline), Mean (post-menopausal women [1]; 2.5 mg daily, week 1): −22%
Hot Flush Weekly Weighted Score, relative change (% from baseline), Mean (post-menopausal women [1]; 2.5 mg daily, week 2): −32%
Hot Flush Weekly Weighted Score, relative change (% from baseline), Mean (post-menopausal women [1]; 2.5 mg daily, week 3): −43%
Hot Flush Weekly Weighted Score, relative change (% from baseline), Mean (post-menopausal women [1]; 2.5 mg daily, week 4): −47%
Hot Flush Weekly Weighted Score, relative change (% from baseline), Mean (post-menopausal women [1]; 2.5 mg daily, week 5): −48%
Hot Flush Weekly Weighted Score, relative change (% from baseline), Mean (post-menopausal women [1]; 2.5 mg daily, week 6): −51%
Hot Flush Weekly Weighted Score, relative change (% from baseline), Mean (post-menopausal women [1]; 2.5 mg daily, week 7): −53%
Hot Flush Weekly Weighted Score, relative change (% from baseline), Mean (post-menopausal women [1]; 2.5 mg daily, week 8): −55%
Hot Flush Weekly Weighted Score, relative change (% from baseline), Mean (post-menopausal women [1]; 2.5 mg daily, week 9): −57%
Hot Flush Weekly Weighted Score, relative change (% from baseline), Mean (post-menopausal women [1]; 2.5 mg daily, week 10): −57%
Hot Flush Weekly Weighted Score, relative change (% from baseline), Mean (post-menopausal women [1]; 2.5 mg daily, week 11): −56%
Hot Flush Weekly Weighted Score, relative change (% from baseline), Mean (post-menopausal women [1]; 2.5 mg daily, week 12): −57%
Hot Flush Weekly Weighted Score, relative change (% from baseline), Mean (post-menopausal women [1]; 5 mg daily, week 0): 0%
Hot Flush Weekly Weighted Score, relative change (% from baseline), Mean (post-menopausal women [1]; 5 mg daily, week 1): −22%
Hot Flush Weekly Weighted Score, relative change (% from baseline), Mean (post-menopausal women [1]; 5 mg daily, week 2): −32%
Hot Flush Weekly Weighted Score, relative change (% from baseline), Mean (post-menopausal women [1]; 5 mg daily, week 3): −37%
Hot Flush Weekly Weighted Score, relative change (% from baseline), Mean (post-menopausal women [1]; 5 mg daily, week 4): −43%
Hot Flush Weekly Weighted Score, relative change (% from baseline), Mean (post-menopausal women [1]; 5 mg daily, week 5): −46%
Hot Flush Weekly Weighted Score, relative change (% from baseline), Mean (post-menopausal women [1]; 5 mg daily, week 6): −56%
Hot Flush Weekly Weighted Score, relative change (% from baseline), Mean (post-menopausal women [1]; 5 mg daily, week 7): −56%
Hot Flush Weekly Weighted Score, relative change (% from baseline), Mean (post-menopausal women [1]; 5 mg daily, week 8): −56%
Hot Flush Weekly Weighted Score, relative change (% from baseline), Mean (post-menopausal women [1]; 5 mg daily, week 9): −58%
Hot Flush Weekly Weighted Score, relative change (% from baseline), Mean (post-menopausal women [1]; 5 mg daily, week 10): −59%
Hot Flush Weekly Weighted Score, relative change (% from baseline), Mean (post-menopausal women [1]; 5 mg daily, week 11): −61%
Hot Flush Weekly Weighted Score, relative change (% from baseline), Mean (post-menopausal women [1]; 5 mg daily, week 12): −60%
Hot Flush Weekly Weighted Score, relative change (% from baseline), Mean (post-menopausal women [1]; 10 mg daily, week 0): 0%
Hot Flush Weekly Weighted Score, relative change (% from baseline), Mean (post-menopausal women [1]; 10 mg daily, week 0, section B analysis): 0%
Hot Flush Weekly Weighted Score, relative change (% from baseline), Mean (post-menopausal women [1]; 10 mg daily, week 1): −20%
Hot Flush Weekly Weighted Score, relative change (% from baseline), Mean (post-menopausal women [1]; 10 mg daily, week 1, section B analysis): −20%
Hot Flush Weekly Weighted Score, relative change (% from baseline), Mean (post-menopausal women [1]; 10 mg daily, week 2): −35%
Hot Flush Weekly Weighted Score, relative change (% from baseline), Mean (post-menopausal women [1]; 10 mg daily, week 3): −47%
Hot Flush Weekly Weighted Score, relative change (% from baseline), Mean (post-menopausal women [1]; 10 mg daily, week 4): −54%
Hot Flush Weekly Weighted Score, relative change (% from baseline), Mean (post-menopausal women [1]; 10 mg daily, week 5): −58%
Hot Flush Weekly Weighted Score, relative change (% from baseline), Mean (post-menopausal women [1]; 10 mg daily, week 7): −64%
Hot Flush Weekly Weighted Score, relative change (% from baseline), Mean (post-menopausal women [1]; 10 mg daily, week 7, section B analysis): −64%
Hot Flush Weekly Weighted Score, relative change (% from baseline), Mean (post-menopausal women [1]; 10 mg daily, week 8, section B analysis): −66%
Hot Flush Weekly Weighted Score, relative change (% from baseline), Mean (post-menopausal women [1]; 10 mg daily, week 9): −67%
Hot Flush Weekly Weighted Score, relative change (% from baseline), Mean (post-menopausal women [1]; 10 mg daily, week 9, section B analysis): −66%
Hot Flush Weekly Weighted Score, relative change (% from baseline), Mean (post-menopausal women [1]; 10 mg daily, week 10, section B analysis): −68%
Hot Flush Weekly Weighted Score, relative change (% from baseline), Mean (post-menopausal women [1]; 10 mg daily, week 11): −69%
Hot Flush Weekly Weighted Score, relative change (% from baseline), Mean (post-menopausal women [1]; 10 mg daily, week 11, section B analysis): −68%
Hot Flush Weekly Weighted Score, relative change (% from baseline), Mean (post-menopausal women [1]; 10 mg daily, week 12): −70%
Hot Flush Weekly Weighted Score, relative change (% from baseline), Mean (post-menopausal women [1]; 10 mg daily, week 12, section B analysis): −69%
Hot Flush Weekly Weighted Score, relative change (% from baseline), Mean (post-menopausal women [1]; 15 mg daily, week 0): 0%
Hot Flush Weekly Weighted Score, relative change (% from baseline), Mean (post-menopausal women [1]; 15 mg daily, week 0, section B analysis): 0%
Hot Flush Weekly Weighted Score, relative change (% from baseline), Mean (post-menopausal women [1]; 15 mg daily, week 1): −19%
Hot Flush Weekly Weighted Score, relative change (% from baseline), Mean (post-menopausal women [1]; 15 mg daily, week 1, section B analysis): −22%
Hot Flush Weekly Weighted Score, relative change (% from baseline), Mean (post-menopausal women [1]; 15 mg daily, week 2): −43%
Hot Flush Weekly Weighted Score, relative change (% from baseline), Mean (post-menopausal women [1]; 15 mg daily, week 3, section B analysis): −56%
Hot Flush Weekly Weighted Score, relative change (% from baseline), Mean (post-menopausal women [1]; 15 mg daily, week 4, section B analysis): −66%
Hot Flush Weekly Weighted Score, relative change (% from baseline), Mean (post-menopausal women [1]; 15 mg daily, week 5, section B analysis): −70%
Hot Flush Weekly Weighted Score, relative change (% from baseline), Mean (post-menopausal women [1]; 15 mg daily, week 6): −74%
Hot Flush Weekly Weighted Score, relative change (% from baseline), Mean (post-menopausal women [1]; 15 mg daily, week 6, section B analysis): −72%
Hot Flush Weekly Weighted Score, relative change (% from baseline), Mean (post-menopausal women [1]; 15 mg daily, week 8): −78%
Hot Flush Weekly Weighted Score, relative change (% from baseline), Mean (post-menopausal women [1]; 15 mg daily, week 8, section B analysis): −76%
Hot Flush Weekly Weighted Score, relative change (% from baseline), Mean (post-menopausal women [1]; 15 mg daily, week 9): −80%
Hot Flush Weekly Weighted Score, relative change (% from baseline), Mean (post-menopausal women [1]; 15 mg daily, week 9, section B analysis): −78%
Hot Flush Weekly Weighted Score, relative change (% from baseline), Mean (post-menopausal women [1]; 15 mg daily, week 10): −79%
Hot Flush Weekly Weighted Score, relative change (% from baseline), Mean (post-menopausal women [1]; 15 mg daily, week 11): −80%
Hot Flush Weekly Weighted Score, relative change (% from baseline), Mean (post-menopausal women [1]; 15 mg daily, week 11, section B analysis): −79%
Hot Flush Weekly Weighted Score, relative change (% from baseline), Mean (post-menopausal women [1]; 15 mg daily, week 12): −82%
Hot Flush Weekly Weighted Score, relative change (% from baseline), Mean (post-menopausal women [1]; 15 mg daily, week 12, section B analysis): −81%
severity of moderate to severe VMS (post-menopausal women [2]): significantly decreased
